{"source": "ChEMBL document CHEMBL4819083", "about": "“Synthesis of pyranochalcone derivatives and their inhibitory effect on NF-κB activation” (Bioorg Med Chem Lett, 2021)", "key": {"RAW264.7 [1]": {"system": "RAW264.7", "assay": "Inhibition of LPS-induced NO expression in mouse RAW264.7 cells at 2 to 20 uM preincubated for 2 hr followed by LPS stimulation and measured after 24 hrs", "type": "functional, cell-based", "details": "dose 2-20 µM"}, "RAW264.7 [2]": {"system": "RAW264.7", "assay": "Inhibition of LPS-induced IL-1beta mRNA expression in mouse RAW264.7 cells at 2 to 20 uM preincubated for 2 hr followed by LPS stimulation and measured after 6 hrs by qRT-PCR", "type": "functional, cell-based", "details": "dose 2-20 µM"}, "RAW264.7 [3]": {"system": "RAW264.7", "assay": "Inhibition of LPS-induced pro IL-1beta expression in mouse RAW264.7 cells at 2 to 20 uM preincubated for 2 hr followed by LPS stimulation and measured after 6 hrs by Western blot analysis", "type": "functional, cell-based", "details": "dose 2-20 µM"}, "RAW264.7 [4]": {"system": "RAW264.7", "assay": "Inhibition of LPS-induced iNOS expression in mouse RAW264.7 cells at 2 to 20 uM preincubated for 2 hr followed by LPS stimulation and measured after 6 hrs by Western blot analysis", "type": "functional, cell-based", "details": "dose 2-20 µM"}, "BMDM [5]": {"system": "BMDM", "assay": "Inhibition of LPS-induced IL-1beta secretion in mouse BMDM cells at 2 to 20 uM preincubated for 2 hr followed by LPS stimulation and measured after 4 hrs", "type": "functional, cell-based", "details": "dose 2-20 µM"}, "BMDM [6]": {"system": "BMDM", "assay": "Inhibition of LPS-induced IL-1beta mRNA expression in mouse BMDM cells at 5 to 10 uM preincubated for 2 hr followed by LPS stimulation and measured after 6 hrs by qRT-PCR", "type": "functional, cell-based", "details": "dose 5-10 µM"}, "[7]": {"biological_target": "T1, Inhibitor of nuclear factor kappa-B kinase subunit alpha (Mus musculus) (UniProt Q60680)", "T1 sequence (whole entry)": "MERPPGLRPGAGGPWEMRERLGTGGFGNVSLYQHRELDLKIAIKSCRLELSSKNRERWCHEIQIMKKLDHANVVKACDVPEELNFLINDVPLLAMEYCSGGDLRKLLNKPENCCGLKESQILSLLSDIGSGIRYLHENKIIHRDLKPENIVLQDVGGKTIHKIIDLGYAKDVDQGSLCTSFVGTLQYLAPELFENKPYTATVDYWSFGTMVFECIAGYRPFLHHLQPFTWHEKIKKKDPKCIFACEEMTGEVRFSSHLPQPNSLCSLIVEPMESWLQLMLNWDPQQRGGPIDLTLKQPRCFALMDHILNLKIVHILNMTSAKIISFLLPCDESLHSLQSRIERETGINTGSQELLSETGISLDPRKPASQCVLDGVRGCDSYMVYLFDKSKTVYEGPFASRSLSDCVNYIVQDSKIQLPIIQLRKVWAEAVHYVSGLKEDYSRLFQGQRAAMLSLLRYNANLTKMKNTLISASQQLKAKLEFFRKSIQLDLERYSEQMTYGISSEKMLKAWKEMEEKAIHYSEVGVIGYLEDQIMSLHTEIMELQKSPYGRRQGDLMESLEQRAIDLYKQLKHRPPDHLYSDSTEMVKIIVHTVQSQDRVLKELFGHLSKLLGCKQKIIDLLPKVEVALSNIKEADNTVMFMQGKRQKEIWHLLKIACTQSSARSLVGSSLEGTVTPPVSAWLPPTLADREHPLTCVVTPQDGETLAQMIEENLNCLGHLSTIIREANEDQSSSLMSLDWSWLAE", "assay": "Inhibition of IKKalpha in mouse RAW264.7 cells assessed as inhibition of LPS-induced IKK-alpha phosphorylation level pre-treated for 2 hrs followed by LPS stimulation and measured after 6 hrs by Western blot analysis", "type": "cell-based"}, "RAW264.7 [8]": {"system": "RAW264.7", "assay": "Inhibition of NF-kappaB in mouse RAW264.7 cells assessed as reduction in LPS-induced p65 phosphorylation pre-treated for 2 hrs followed by LPS stimulation and measured after 6 hrs by Western blot analysis", "type": "cell-based"}, "RAW264.7 [9]": {"system": "RAW264.7", "assay": "Inhibition of MAPK signalling activation in mouse RAW264.7 cells assessed as reduction in LPS-induced p38 phosphorylation pre-treated for 2 hrs followed by LPS stimulation and measured after 6 hrs by Western blot analysis", "type": "cell-based"}, "RAW264.7 [10]": {"system": "RAW264.7", "assay": "Cytotoxicity against mouse RAW264.7 cells at > 50 uM", "type": "cell-based"}}, "note": "The source made the active and inactive calls. The rule behind the calls is not given here.", "data": [{"smiles": "C=CC(=O)Oc1ccc(/C=C/C(=O)c2c(OC)cc3c(c2OC(=O)C=C)CCC(C)(C)O3)cc1", "values": [{"measurement": "inhibition", "setting": "RAW264.7 [1]", "result": "Active"}, {"measurement": "inhibition", "setting": "RAW264.7 [2]", "result": "Active"}, {"measurement": "inhibition", "setting": "RAW264.7 [3]", "result": "Active"}, {"measurement": "inhibition", "setting": "RAW264.7 [4]", "result": "Active"}, {"measurement": "inhibition", "setting": "BMDM [5]", "result": "Active"}, {"measurement": "inhibition", "setting": "BMDM [6]", "result": "Active"}, {"measurement": "inhibition", "setting": "[7]", "result": "Active"}, {"measurement": "inhibition", "setting": "RAW264.7 [8]", "result": "Active"}, {"measurement": "inhibition", "setting": "RAW264.7 [9]", "result": "Active"}, {"measurement": "Activity", "setting": "RAW264.7 [10]", "result": "Non-Toxic"}]}]}
